We go through six compounds from patent US20240124483A1, “Methods for the Treatment of Fibrotic Disease” (SHY Therapeutics, LLC, priority 2021, published 2024).

The subject of one test is Smad2/3 phosphorylation. As to the kind of experiment: Phospho-Smad2/3 Inhibition Assay in Panc-1 (western blot). It counts as cell-based. The following applies: Homo sapiens; for inhibition at 10 µM: 3 hours, PANC-1 stimulated with 10 ng/ml TGF-b1 for 1 hour, read-out: % inh of Smad2/3 phosphorylation in PANC-1. Here is the method:
(§1) Cell lines: Human tumor-derived pancreatic cancer cell line Panc-1 and mouse muscle myoblast C2C12 were purchased from American Type Culture Collection and grown in complete DMEM-High Glucose, supplemented with penicillin (100 U/mL), streptomycin (100 μg/mL), and 10% heat-inactivated FBS at 37° C. in a humidified incubator with 5% CO2.
(§2) Method: Cells were plated at 350000 cells/well density in a 12-well plate, allowed 3 hours to adhere to the plate, then starved in the appropriate medium in the presence of 0.5% FBS overnight. The small molecules to be tested were added to the cells in the final concentration of 10 μM in the presence of 0.3% DMSO for 3 hours incubation at 37° C. For IC50 value determination, serial dilutions of compounds were added to cells under the same conditions. Next, Panc-1 cells were stimulated with 10 ng/ml TGF-b1 for 1 hour, and C2C12 cells were stimulated with 10 ng/ml TGF-b1 for 20 minutes (recombinant human TGF-b1, R&D Systems). After stimulation cells were lysed with lysis buffer containing 1% Triton X-100, EDTA, and Halt™ Protease & Phosphatase Inhibitor Cocktail (Thermo Scientific). Protein concentration was assessed by BCA protein assay (Thermo Scientific). Phosphorylation level of Smad2/Smad3 was determined by western blot.
(§3) Western blot protocol: Equal amounts of protein (15-50 μg) were separated by SDS-PAGE and transferred to nitrocellulose membranes (Invitrogen by Thermo Fisher Scientific). The membrane was stained with Ponceau S Stain (Boston BioProducts) to verify uniform protein loading. Membranes were blocked with 10% milk and phosphorylation levels of Smad2/Smad3 were assessed by incubating overnight at 4° C. with the following antibodies: Phospho-Smad2 (Ser465/467) and Phosph-Smad3 (Ser423/425), both from Cell Signaling Technology. Then the membranes were incubated with HRP-conjugated secondary antibody (Jackson Immunoresearch, West Grove, PA). Bands were incubated in Amersham ECL Prime Western Blotting Detection Reagent (GE Healthcare) and visualized using the ChemiDoc MP imaging system (Bio-Rad).
(In general: In western blotting, separated proteins are transferred to a membrane and probed.)

A further test concerns MAPK p38. As to the kind of experiment: MAPK p38 Activation Assay in Panc-1 (western blot). It counts as cell-based, Human. More on the design: key: Y = yes; N = No. The following applies: at 10 μM. The protocol:
as §1
as §2, with “MAPK p38” for “Smad2/Smad3”
as §3, with “antibody: Phospho-p38 MAPK (Thr180/Tyr182),” for “antibodies: Phospho-Smad2 (Ser465/467) and Phosph-Smad3 (Ser423/425), both”

The target of another test is KRas G12D mutant (Homo sapiens (Human), UniProt P01116, G12D). As to the kind of experiment: Ras GTP Binding Domain Inhibition Assay, KRas G12D mutant. As to conditions: for inhibition at 20 µM: Table 7; for KRas G12D mutant + SOS: % inh. / KRas G12D mutant: % inh.: 20 uM, Table 8. Here is the method: A Ras Superfamily Activity Assay (as disclosed in International Application No. PCT/US2018/038613, filed Jun. 20, 2018, which is incorporated by reference in its entirety) was used as a specific assay to evaluate compounds against the following for the following Ras Superfamily proteins: KRas wild type, KRas Q61H mutant, KRas G12C mutant, KRas G12D mutant, Rac-1, and Rho-A.
Buffer-I: • 25 mM Tris-HCl, pH 7.4 • 27 mM KCl • 137 mM NaCl • 1 mM MgCl2 • 1 mM DTT
Buffer-II: • 50 mM Tris-HCl, pH 7.0 • 1 mM MgCl2 • 1 mM DTT
The small GTPases proteins: KRas wild type. KRas Q61H mutant, KRas G12C mutant, KRas G12D mutants, Rac-1, and Rho-A were expressed as His-tagged proteins. In addition, the Guanosine nucleotide Exchange Factor (GEF) Sos protein (residues 556-1049) was expressed as a His-tagged protein. In cells, the guanine nucleotide exchange factor Sos protein promotes activation of Ras proteins by stimulating an exchange of GDP for GTP. The inclusion of Sos to the Ras GTP binding domain inhibition assay may be considered as an alternative representation of physiological cellular conditions for evaluating the inhibitory activity of some of the tested small molecules.
For the assay, all purified small GTPases proteins were diluted in Buffer-I or Buffer-II to a final concentration of 10-30 μg/mL. 200 μL of each diluted protein was added to a nickel-coated 96-well plate and incubated overnight at 4° C. Then the protein solution was discarded and 200 μL of Buffer-I or Buffer-II was added to each well in the presence of 1% DMSO. Compounds to be tested were added to the protein-coated wells at final concentration of 20 μM, and incubated for 3 hours at room temperature with and without 10-30 μg/mL of Sos added to the final hour of the incubation. When performing IC50 measurements a serial dilution of all tested concentrations was added. Then Cy3-GTP or Cy5-GTP was added to each well to a final concentration of 100 nM. The labeled GTP was incubated for 45 minutes at room temperature. Following GTP incubation, wells were washed 3× in Buffer-I or Buffer-II and 200 μL of Buffer-I or Buffer-II was added to each well. Following washes, the amount of bound labeled-GTP was measured using a SpectraMax M3 (Molecular Devices).

The mark [1] stands for this setting: + SOS, read-out: KRas G12D mutant + SOS: % inh.
Setting [2] is: without SOS, read-out: KRas G12D mutant: % inh.

Where two headings read alike, the source gives them in different places.

Chain of KRas G12D mutant (P01116 other isoform, or with tags, fused parts or gaps G12D): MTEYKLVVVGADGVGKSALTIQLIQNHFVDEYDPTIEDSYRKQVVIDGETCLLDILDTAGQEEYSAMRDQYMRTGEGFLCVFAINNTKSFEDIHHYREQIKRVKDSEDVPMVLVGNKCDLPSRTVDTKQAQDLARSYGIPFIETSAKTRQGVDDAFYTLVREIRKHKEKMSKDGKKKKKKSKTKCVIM

In general, IC50 refers to the point on the concentration scale where inhibition reaches its midpoint. For `CO[C@H]1CC[C@@H](Nc2nc(-c3nccn3C)nc3sc(-c4ccn(C)n4)c(-c4ccccc4)c23)C1` (racemic) [Compound 5, rac-N-((1R,3S)-3-Methoxycyclopentyl)-2-(1-methyl-1H-imidazol-2-yl)-6-(1-methyl-1H-pyrazol-3-yl)-5-phenylthieno[2,3-d]pyrimidin-4-amine], in the test on Smad2/3 phosphorylation, the inhibition at 10 µM lay within 76 to 100%. In the test with Smad2/3 phosphorylation (PANC-1, TGF-b1 stimulated), this compound had an IC50 of 5 to 10 µM. The “Activation of MAPK p38 in PANC-1” value in the test with MAPK p38 is given as “Y”. In addition, the inhibition at 20 µM at KRas G12D mutant (setting [1]) was 46 to 75%; at KRas G12D mutant (setting [2]), 1 to 25%. For the same compound, the “KRas G12D mutant + SOS: % inh.” value on KRas G12D mutant (+ SOS) was “C (C = 46-75% inhibition)”. Moreover, at KRas G12D mutant (without SOS), the “KRas G12D mutant: % inh.” value is recorded as “A (A = 1-25% inhibition)”.
On to `COc1cccc(-c2sc3nc(-c4nccn4C)nc(NC4CCC(OC)C4)c3c2C)c1F` (racemic) [Compound 10, rac-6-(2-Fluoro-3-methoxyphenyl)-N-((1R,3S)-3-methoxycyclopentyl)-5-methyl-2-(1-methyl-1H-imidazol-2-yl)thieno[2,3-d]pyrimidin-4-amine and rac-6-(2-Fluoro-3-methoxyphenyl)-N-((1R,3R)-3-methoxycyclopentyl)-5-methyl-2-(1-methyl-1H-imidazol-2-yl)thieno[2,3-d]pyrimidin-4-amine], for which, in the test with Smad2/3 phosphorylation, the inhibition at 10 µM was 1 to 25%. In the test with MAPK p38, the “Activation of MAPK p38 in PANC-1” value is “Y”. Also, the inhibition at 20 µM on KRas G12D mutant (setting [1]) was 46 to 75%; at KRas G12D mutant (setting [2]) it was 76 to 100%. In addition, at KRas G12D mutant (+ SOS), the “KRas G12D mutant + SOS: % inh.” value is listed as “C (C = 46-75% inhibition)”. For the same compound, the “KRas G12D mutant: % inh.” value on KRas G12D mutant (without SOS) was “D (D = 76-100% inhibition)”.
For the compound `CO[C@H]1CC[C@@H](Nc2nc(-c3nccn3C)nc3sc(-c4ccn(C(C)C)n4)c(C)c23)C1` (racemic) [Compound 12, rac-6-(1-Isopropyl-1H-pyrazol-3-yl)-N-((1R,3S)-3-methoxycyclopentyl)-5-methyl-2-(1-methyl-1H-imidazol-2-yl)thieno[2,3-d]pyrimidin-4-amine], the inhibition at 10 µM with Smad2/3 phosphorylation is 1 to 25%. The “Activation of MAPK p38 in PANC-1” value in the test with MAPK p38 is reported as “Y”. In addition, the inhibition at 20 µM at KRas G12D mutant (setting [1]) and on KRas G12D mutant (setting [2]) was 46 to 75% throughout. For the same compound, the “KRas G12D mutant + SOS: % inh.” value on KRas G12D mutant (+ SOS) was “C (C = 46-75% inhibition)”. Besides, on KRas G12D mutant (without SOS), the “KRas G12D mutant: % inh.” value is “C (C = 46-75% inhibition)”.
As to `CO[C@@H]1CC[C@H](Nc2nc(-c3nccn3C)nc3sc(-c4ccn(C(C)C)n4)c(-c4ccccc4)c23)C1` (single isomer, unassigned) [Compound 11], the inhibition at 10 µM with Smad2/3 phosphorylation lay within 46 to 75%. Also, the “Activation of MAPK p38 in PANC-1” value with MAPK p38 is “Y”. Further, the inhibition at 20 µM at KRas G12D mutant (setting [1]) and on KRas G12D mutant (setting [2]) was 46 to 75% each time. Moreover, the “KRas G12D mutant + SOS: % inh.” value on KRas G12D mutant (+ SOS) is on record as “C (C = 46-75% inhibition)”. The “KRas G12D mutant: % inh.” value on KRas G12D mutant (without SOS) is “C (C = 46-75% inhibition)”.
Consider `COCCNc1nc(-c2nccn2C)nc2sc(-c3ccccc3)c(-c3ccccc3)c12` [Compound 1, N-(2-Methoxyethyl)-2-(1-methyl-1H-imidazol-2-yl)-5,6-diphenylthieno[2,3-d]pyrimidin-4-amine], for which the inhibition at 10 µM with Smad2/3 phosphorylation lay in the range of 46 to 75%. Moreover, the “Activation of MAPK p38 in PANC-1” value with MAPK p38 is “N”. In addition, the inhibition at 20 µM on KRas G12D mutant (setting [1]) lay within 1 to 25%; at KRas G12D mutant (setting [2]), 76 to 100%. Besides, at KRas G12D mutant (+ SOS), the “KRas G12D mutant + SOS: % inh.” value is listed as “A (A = 1-25% inhibition)”. Further, the “KRas G12D mutant: % inh.” value on KRas G12D mutant (without SOS) is “D (D = 76-100% inhibition)”.
Regarding `COCCN(C)c1nc(-c2nccn2C)nc2sc(-c3ccccc3)c(-c3ccccc3)c12` [Compound 2, N-(2-Methoxyethyl)-N-methyl-2-(1-methyl-1H-imidazol-2-yl)-5,6-diphenylthieno[2,3-d]pyrimidin-4-amine], the inhibition at 10 µM in the test with Smad2/3 phosphorylation was found to be 0%. Besides, the “Activation of MAPK p38 in PANC-1” value in the test on MAPK p38 is given as “Y”. For the same compound, the inhibition at 20 µM at KRas G12D mutant (setting [2]) lay in the range of 46 to 75%. The “KRas G12D mutant: % inh.” value on KRas G12D mutant (without SOS) is recorded as “C (C = 46-75% inhibition)”.
